Experiment [1] concerns the target T1, Substance-K receptor (Rattus norvegicus, UniProt P16610).
T1 sequence (P16610 whole entry): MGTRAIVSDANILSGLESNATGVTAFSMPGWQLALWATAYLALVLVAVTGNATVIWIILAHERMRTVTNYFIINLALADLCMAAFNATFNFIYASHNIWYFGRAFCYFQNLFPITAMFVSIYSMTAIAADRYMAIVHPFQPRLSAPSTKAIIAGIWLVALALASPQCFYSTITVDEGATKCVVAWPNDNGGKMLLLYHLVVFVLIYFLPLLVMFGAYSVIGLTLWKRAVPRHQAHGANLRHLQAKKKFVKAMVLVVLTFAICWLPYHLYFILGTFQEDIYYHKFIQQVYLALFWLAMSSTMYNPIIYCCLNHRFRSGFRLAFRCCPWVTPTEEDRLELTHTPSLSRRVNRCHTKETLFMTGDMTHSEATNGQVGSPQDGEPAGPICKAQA
Kind of experiment: The compound was evaluated for the inhibition of [125I]NKA binding to Tachykinin receptor 2 from rat duodenum membranes. In kind it is cell membranes, Membrane.

The species entered for a further experiment is Oryctolagus cuniculus. Kind of experiment: The compound was evaluated for the inhibition of [Nle10]-NKA(4-10)-induced contraction of the rabbit pulmonary artery. The format is functional. The settings on record: read-out: pA2 (converted).
Experiment [2] relates to Cavia porcellus. Kind of experiment: The compound was evaluated for the inhibition of bronchoconstriction in guinea pig at intraduodenal dose of 0.5 mg/Kg. Conditions: Lung. In kind it is functional.
Experiment [3] has as its target T1, Substance-K receptor. Kind of experiment: Inhibition of [125I]NKA binding to neurokinin NK2 receptor from rat duodenum membranes. The format is cell membranes, Membrane.
Experiment [4] deals with Cavia porcellus. In words: The compound was evaluated for the inhibition of bronchoconstriction in guinea pig at intravenous dose of 0.2 mg/Kg. In kind it is functional. The settings on record: Lung.
Experiment [5] addresses T2, Substance-K receptor (Mesocricetus auratus, UniProt P51144).
T2 sequence (P51144 whole entry): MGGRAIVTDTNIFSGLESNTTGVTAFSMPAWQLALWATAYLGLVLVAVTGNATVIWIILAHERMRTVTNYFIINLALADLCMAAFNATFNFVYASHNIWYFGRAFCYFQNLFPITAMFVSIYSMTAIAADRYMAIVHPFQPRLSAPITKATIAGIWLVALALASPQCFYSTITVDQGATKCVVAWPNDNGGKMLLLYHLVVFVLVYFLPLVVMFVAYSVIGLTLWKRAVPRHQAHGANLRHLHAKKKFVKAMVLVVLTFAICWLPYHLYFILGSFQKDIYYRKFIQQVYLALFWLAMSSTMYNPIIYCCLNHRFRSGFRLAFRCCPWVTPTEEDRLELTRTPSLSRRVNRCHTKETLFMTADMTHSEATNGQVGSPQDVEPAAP
Kind of experiment: The compound was evaluated for the inhibition of [125I]NKA binding to neurokinin NK2 receptor from hamster urinary bladder membranes.

In experiment [6] the test system is Cavia porcellus. In words: The compound was evaluated for its effect on bronchoconstriction induced by [Sar9,Met(O2)11]-SP(5 ug/kg, i.v.) in the guinea pig 15 min after administration. In kind it is functional.
In experiment [7] the test system is Cavia porcellus. In words: The compound was evaluated for its effect on bronchoconstriction induced by histamine(10 ug/kg, i.v.) in the guinea pig 15 min after administration. The format is functional.
In experiment [8] the test system is Cavia porcellus. Kind of experiment: The compound was evaluated for its effect on bronchoconstriction induced by serotonin(10 ug/kg, i.v.) in the guinea pig 60 min after administration. In kind it is functional.
In experiment [9] the test system is Cavia porcellus. Kind of experiment: The compound was evaluated for its effect on bronchoconstriction induced by acetylcholine(60 ug/kg, i.v.) in the guinea pig 60 min after administration. In kind it is functional.
Experiment [10] deals with Cavia porcellus. Kind of experiment: The compound was evaluated for its effect on bronchoconstriction induced by histamine(10 ug/kg, i.v.) in the guinea pig 60 min after administration. In kind it is functional.
For experiment [11], the system named is Cavia porcellus. Kind of experiment: Tested in vivo to antagonize the NKA-induced bronchoconstriction in guinea pig intravenously. The format is functional. Conditions: iv, read-out: ID50 (the source's name).
Experiment [12] concerns Cavia porcellus. Kind of experiment: The compound was evaluated for its effect on bronchoconstriction induced by acetylcholine(60 ug/kg, i.v.) in the guinea pig 15 min after administration. In kind it is functional.
Experiment [13] has as its system Cavia porcellus. In words: The compound was evaluated for its effect on bronchoconstriction induced by serotonin(10 ug/kg, i.v.) in the guinea pig 15 min after administration. In kind it is functional.
Experiment [14] relates to Cavia porcellus. In words: The compound was evaluated for its effect on bronchoconstriction induced by [Sar9,Met(O2)11]-SP(5 ug/kg, i.v.) in the guinea pig 60 min after administration. The format is functional.
The subject of experiment [15] is Cavia porcellus. Kind of experiment: Tested in vivo to antagonize the NKA-induced bronchoconstriction in guinea pig by intraduodenal route. The format is functional. Conditions: read-out: ID50 (the source's name).

In turn, `CC(=O)NC1(c2ccccc2)CCN(CC[C@H](CN(C)C(=O)c2ccccc2)c2ccc(Cl)c(Cl)c2)CC1` [SAREDUTANT] came in with a Ki at Substance-K receptor [1] of 945 nM.

Turning to `CN(CC(CCN1CCC(O)(c2ccccc2)CC1)c1ccc(Cl)c(Cl)c1)C(=O)c1cccs1` (stereo not drawn), the Kb in the experiment filed under Oryctolagus cuniculus is 0.0676 nM. This molecule also registered an inhibition in vivo at 0.5 mg/kg in the experiment on Cavia porcellus [2] of 73%. On Substance-K receptor [3], this molecule returned a Ki of 1.4 nM. In the experiment with Cavia porcellus [4], at 0.2 mg/kg the inhibition in vivo was 93%.

On to `CC(=O)NCC1(c2ccccc2)CCN(CCC(CN(C)C(=O)c2ccccc2)c2ccc(Cl)c(Cl)c2)CC1` (stereo not drawn), for which the Ki on Substance-K receptor [3] amounted to 23 nM.

With `CC(=O)OC1(c2ccccc2)CCN(CCC(CN(C)C(=O)c2ccccc2)c2ccc(Cl)c(Cl)c2)CC1` (stereo not drawn), the inhibition in vivo at 0.5 mg/kg in the experiment on Cavia porcellus [2] was 36%. This molecule had a Ki at Substance-K receptor [3] of 0.3 nM. Also, the inhibition in vivo at 0.2 mg/kg with Cavia porcellus [4] worked out at 98%.

In the case of `CC(=O)NC1(c2ccccc2)CCN(CCC(CN(C)C(=O)c2ccccc2)c2ccc(Cl)c(Cl)c2)CC1` (single isomer, unassigned) [SAREDUTANT], the Kb in the experiment filed under Oryctolagus cuniculus was 0.0331 nM. Moreover, the Ki on Substance-K receptor [5] turned out to be 1.2 nM; at Substance-K receptor [3] it was 0.5 nM. Further, the Volume of air in the experiment on Cavia porcellus [6] turned out to be 4.4 mL; with Cavia porcellus [7], 3.2 mL; with Cavia porcellus [8], 4.7 mL; in the experiment on Cavia porcellus [9], 3.2 mL; in the experiment with Cavia porcellus [10], 3.9 mL; with Cavia porcellus [12], 2.8 mL. Also, the Volume of air in the experiment with Cavia porcellus [13] was found to be 4.5 mL; with Cavia porcellus [14], 4.2 mL. Further, at 0.5 mg/kg the inhibition in vivo in the experiment on Cavia porcellus [2] was 100%. The results for the ED50 in the experiment with Cavia porcellus [11] and in the experiment with Cavia porcellus [15] were 0.037 mg/kg and 0.35 mg/kg, respectively. Moreover, the inhibition in vivo at 0.2 mg/kg with Cavia porcellus [4] is 100%.

As for `CN(CC(CCN1CCC(O)(c2ccccc2)CC1)c1ccc(Cl)c(Cl)c1)C(=O)c1ccccc1` (stereo not drawn), the Kb in the experiment filed under Oryctolagus cuniculus was 0.182 nM. The molecule also gave a Ki at Substance-K receptor [3] of 1 nM. This molecule also registered an inhibition in vivo at 0.2 mg/kg in the experiment on Cavia porcellus [4] of 93%.

As to `CCOC1(c2ccccc2)CCN(CCC(CN(C)C(=O)c2ccccc2)c2ccc(Cl)c(Cl)c2)CC1` (stereo not drawn), in the experiment filed under Oryctolagus cuniculus, the Kb was 0.17 nM. This molecule also had a Ki on Substance-K receptor [3] of 0.9 nM. Also, the inhibition in vivo at 0.2 mg/kg in the experiment with Cavia porcellus [4] is 40%.

`CN(CC(CCN1CCC(c2ccccc2)CC1)c1ccc(Cl)c(Cl)c1)C(=O)c1ccccc1` (stereo not drawn) had a Ki at Substance-K receptor [3] above 100 nM.

As to `CN(CC(CCN1CCC(O)(c2ccccc2)CC1)c1ccc(Cl)c(Cl)c1)C(=O)c1cccc2ccccc12` (stereo not drawn), the Kb in the experiment listed under Oryctolagus cuniculus is 2.34 nM. The same molecule gave a Ki at Substance-K receptor [3] of 1.5 nM. For the same molecule, at 0.2 mg/kg the inhibition in vivo with Cavia porcellus [4] was 0%.

Consider `CN(CC(CCN1CCC(O)(c2ccccc2)CC1)c1ccc(Cl)c(Cl)c1)C(=O)c1ccsc1` (stereo not drawn), for which, in the experiment filed under Oryctolagus cuniculus, the Kb was 0.229 nM. The molecule also had a Ki at Substance-K receptor [3] of 1 nM. Moreover, 0.2 mg/kg produced 77% inhibition in vivo in the experiment on Cavia porcellus [4].

Take `CCN(CC(CCN1CCC(OC(C)=O)(c2ccccc2)CC1)c1ccc(Cl)c(Cl)c1)C(=O)c1cccs1` (stereo not drawn): the Kb in the experiment filed under Oryctolagus cuniculus was 0.447 nM. For the same molecule, in the experiment with Cavia porcellus [2], at 0.5 mg/kg the inhibition in vivo was 34%. Moreover, the affinity at Substance-K receptor [3], expressed as Ki, was 0.3 nM. In the experiment with Cavia porcellus [4], this molecule registered an inhibition in vivo at 0.2 mg/kg of 97%.

`CC(=O)NC1(c2ccccc2)CCN(CCC(CNC(=O)c2ccccc2)c2ccc(Cl)c(Cl)c2)CC1` (stereo not drawn) yielded an inhibition constant Ki on Substance-K receptor [3] above 100 nM.

As for `CN(CC(CCN1CCC(CO)(c2ccccc2)CC1)c1ccc(Cl)c(Cl)c1)C(=O)c1ccccc1` (stereo not drawn), affinity at Substance-K receptor [3] was put at a Ki of 50 nM.

These data come from ChEMBL document CHEMBL1152006, “Pharmacological profile and chemical synthesis of SR 48968, a non-peptide antagonist of the neurokinin A (NK2) receptor” (Bioorg Med Chem Lett, 1993).
